Reference: US10499642B2, “Isoxazoline-substituted benzamides and analogues as insecticides” (SYNGENTA PARTICIPATIONS AG, priority 2015, dated 2019)
Where two headings read alike, the source gives them in different places.

What was measured:
Format in all cases: in vivo
[1] = test system: Tetranychus urticae; experiment: Tetranychus urticae (two-spotted spider mite) bean leaf disc test; conditions: foliar, 192 h
Description: Tetranychus urticae (Two-Spotted Spider Mite):
Bean leaf discs on agar in 24-well microtiter plates were sprayed with aqueous test solutions prepared from 10′000 ppm DMSO stock solutions. After drying the leaf discs were infested with a mite population of mixed ages. The samples were assessed for mortality on mixed population (mobile stages) 8 days after infestation.

[2] = test system: Myzus persicae; experiment: Myzus persicae (green peach aphid) sunflower leaf disc test; conditions: foliar, 144 h
Description: Myzus persicae (Green Peach Aphid):
Sunflower leaf discs were placed on agar in a 24-well microtiter plate and sprayed with test solutions at an application rate of 200 ppm. After drying, the leaf discs were infested with an aphid population of mixed ages. After an incubation period of 6 days after treatment, samples were checked for mortality. The following compounds gave at least 80% mortality of Myzus persicae: […]

[3] = test system: Spodoptera littoralis; experiment: Spodoptera littoralis (Egyptian cotton leaf worm) cotton leaf disc test; conditions: foliar, 72 h, read-out: control (at least one of mortality, anti-feedant effect, and growth inhibition)
In short: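 Cotton leaf discs on agar were sprayed with aqueous dilutions of 10′000 ppm DMSO stocks, dried and infested with five L1 larvae. Mortality, anti-feedant effect and growth inhibition were scored against untreated samples 3 days after infestation. Control = any of these higher than untreated.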

[4] = test system: Diabrotica Balteata; experiment: Diabrotica balteata (corn root worm) maize sprout test; conditions: 96 h, read-out: effect in at least one of the two categories (mortality or growth inhibition)
In short: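 Maize sprouts on agar were sprayed with aqueous test solutions made from 10′000 ppm DMSO stocks, dried, then infested with 6 to 10 L2 larvae per well. Mortality and growth inhibition versus untreated samples were assessed 4 days after infestation; application rate 200 ppm.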

[5] = test system: Plutella xylostella; experiment: Plutella xylostella (diamond back moth) artificial diet test; conditions: 120 h, read-out: effect in at least one of the two categories (mortality or growth inhibition)
In short: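 Artificial diet treated with aqueous compound solutions made from DMSO stocks, dried, then infested with L2 larvae (10 to 15 per well). Mortality and growth inhibition scored versus untreated controls 5 days after infestation. Application rate 200 ppm.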

[6] = test system: Thrips tabaci; experiment: Thrips tabaci (onion thrips) sunflower leaf disc test; conditions: foliar, 144 h
Description: Thrips tabaci (Onion Thrips):
Sunflower leaf discs were placed on agar in 24-well microtiter plates and sprayed with aqueous test solutions prepared from 10′000 ppm DMSO stock solutions. After drying the leaf discs were infested with a thrips population of mixed ages. The samples were assessed for mortality 6 days after infestation.

CC1=NOC(N(C=O)C(=O)c2ccc(C3=NO[C@@](c4cc(Cl)c(Cl)c(Cl)c4)(C(F)(F)F)C3)cc2C)C1 (stereo partly drawn) [Compound A023, N-formyl-2-methyl-N-(3-methyl-4,5-dihydroisoxazol-5-yl)-4-[(5S)-5-(3,4,5-trichlorophenyl)-5-(trifluoromethyl)-4H-isoxazol-3-yl]benzamide]
≥ 80%: mortality at 200 ppm [1] | mortality at 200 ppm [2] | percent control (mortality, anti-feedant effect or growth inhibition) at 200 ppm [3] | percent effect (mortality or growth inhibition) at 200 ppm [4] | percent effect (mortality or growth inhibition) at 200 ppm [5] | mortality at 200 ppm [6]

CC1=NOC(N(C=O)C(=O)c2ccc(C3=NO[C@@](c4cc(Cl)c(Cl)c(Cl)c4)(C(F)(F)F)C3)cc2Cl)C1 (stereo partly drawn) [Compound A024, 2-chloro-N-formyl-N-(3-methyl-4,5-dihydroisoxazol-5-yl)-4-[(5S)-5-(3,4,5-trichlorophenyl)-5-(trifluoromethyl)-4H-isoxazol-3-yl]benzamide]
≥ 80%: mortality at 200 ppm [1] | mortality at 200 ppm [2] | percent control (mortality, anti-feedant effect or growth inhibition) at 200 ppm [3] | percent effect (mortality or growth inhibition) at 200 ppm [4] | percent effect (mortality or growth inhibition) at 200 ppm [5] | mortality at 200 ppm [6]

CC1=NOC(NC(=O)c2ccc(C3=NO[C@@](c4cc(Cl)c(Cl)c(Cl)c4)(C(F)(F)F)C3)cc2Cl)C1 (stereo partly drawn) [Compound A025, 2-chloro-N-(3-methyl-4,5-dihydroisoxazol-5-yl)-4-[(5S)-5-(3,4,5-trichlorophenyl)-5-(trifluoromethyl)-4H-isoxazol-3-yl]benzamide]
≥ 80%: mortality at 200 ppm [1] | mortality at 200 ppm [2] | percent control (mortality, anti-feedant effect or growth inhibition) at 200 ppm [3] | percent effect (mortality or growth inhibition) at 200 ppm [4] | percent effect (mortality or growth inhibition) at 200 ppm [5] | mortality at 200 ppm [6]

CCC1=NOC(NC(=O)c2ccc(C3=NO[C@@](c4cc(Cl)c(F)c(Cl)c4)(C(F)(F)F)C3)cc2C)C1 (stereo partly drawn) [Compound A026, 4-[(5S)-5-(3,5-dichloro-4-fluoro-phenyl)-5-(trifluoromethyl)-4H-isoxazol-3-yl]-N-(3-ethyl-4,5-dihydroisoxazol-5-yl)-2-methyl-benzamide]
≥ 80%: mortality at 200 ppm [1] | mortality at 200 ppm [2] | percent control (mortality, anti-feedant effect or growth inhibition) at 200 ppm [3] | percent effect (mortality or growth inhibition) at 200 ppm [4] | percent effect (mortality or growth inhibition) at 200 ppm [5] | mortality at 200 ppm [6]

CC1=NOC(NC(=O)c2ccc(C3=NO[C@@](c4cc(Cl)c(Cl)c(Cl)c4)(C(F)(F)F)C3)cc2C)C1 (stereo partly drawn) [Compound A027, 2-methyl-N-(3-methyl-4,5-dihydroisoxazol-5-yl)-4-[(5S)-5-(3,4,5-trichlorophenyl)-5-(trifluoromethyl)-4H-isoxazol-3-yl]benzamide]
≥ 80%: mortality at 200 ppm [1] | mortality at 200 ppm [2] | percent control (mortality, anti-feedant effect or growth inhibition) at 200 ppm [3] | percent effect (mortality or growth inhibition) at 200 ppm [4] | percent effect (mortality or growth inhibition) at 200 ppm [5] | mortality at 200 ppm [6]

CC1=NOC(NC(=O)c2ccc(C3=NO[C@@](c4cc(Cl)cc(C(F)(F)F)c4)(C(F)(F)F)C3)cc2C)C1 (stereo partly drawn) [Compound A028, 4-[(5S)-5-[3-chloro-5-(trifluoromethyl)phenyl]-5-(trifluoromethyl)-4H-isoxazol-3-yl]-2-methyl-N-(3-methyl-4,5-dihydroisoxazol-5-yl)benzamide]
≥ 80%: mortality at 200 ppm [1] | mortality at 200 ppm [2] | percent control (mortality, anti-feedant effect or growth inhibition) at 200 ppm [3] | percent effect (mortality or growth inhibition) at 200 ppm [4] | percent effect (mortality or growth inhibition) at 200 ppm [5] | mortality at 200 ppm [6]

CC1=NOC(NC(=O)c2ccc(C3=NO[C@@](c4cc(Br)cc(C(F)(F)F)c4)(C(F)(F)F)C3)cc2C)C1 (stereo partly drawn) [Compound A029, 4-[(5S)-5-[3-bromo-5-(trifluoromethyl)phenyl]-5-(trifluoromethyl)-4H-isoxazol-3-yl]-2-methyl-N-(3-methyl-4,5-dihydroisoxazol-5-yl)benzamide]
≥ 80%: mortality at 200 ppm ([1]; application rate 200 ppm, bean leaf discs, mixed population (mobile stages), 8 days after infestation, read-out: mortality) | mortality at 200 ppm ([2]; application rate 200 ppm, sunflower leaf discs, population of mixed ages, 6 days after treatment, read-out: mortality) | percent control (mortality, anti-feedant effect or growth inhibition) at 200 ppm ([3]; application rate 200 ppm, cotton leaf discs, L1 larvae, 3 days after infestation) | percent effect (mortality or growth inhibition) at 200 ppm ([4]; application rate 200 ppm, maize sprouts, L2 larvae, 4 days after infestation) | percent effect (mortality or growth inhibition) at 200 ppm ([5]; application rate 200 ppm, artificial diet, L2 larvae, 5 days after infestation) | mortality at 200 ppm ([6]; application rate 200 ppm, sunflower leaf discs, population of mixed ages, 6 days after infestation, read-out: mortality)

COC1=NOC(NC(=O)c2ccc(C3=NO[C@@](c4cc(Cl)c(F)c(Cl)c4)(C(F)(F)F)C3)cc2C)C1 (stereo partly drawn) [Compound A030, 4-[(5S)-5-(3,5-dichloro-4-fluoro-phenyl)-5-(trifluoromethyl)-4H-isoxazol-3-yl]-N-(3-methoxy-4,5-dihydroisoxazol-5-yl)-2-methyl-benzamide]
≥ 80%: mortality at 200 ppm [1] | mortality at 200 ppm [2] | percent control (mortality, anti-feedant effect or growth inhibition) at 200 ppm [3] | percent effect (mortality or growth inhibition) at 200 ppm [4] | percent effect (mortality or growth inhibition) at 200 ppm [5] | mortality at 200 ppm [6]

Cc1cc(C2=NO[C@@](c3cc(Cl)c(F)c(Cl)c3)(C(F)(F)F)C2)ccc1C(=O)N(C=O)C1CC(C2CC2)=NO1 (stereo partly drawn) [Compound A031, N-(3-cyclopropyl-4,5-dihydroisoxazol-5-yl)-4-[(5S)-5-(3,5-dichloro-4-fluoro-phenyl)-5-(trifluoromethyl)-4H-isoxazol-3-yl]-N-formyl-2-methyl-benzamide]
≥ 80%: mortality at 200 ppm [1] | mortality at 200 ppm [2] | percent control (mortality, anti-feedant effect or growth inhibition) at 200 ppm [3] | percent effect (mortality or growth inhibition) at 200 ppm [4] | percent effect (mortality or growth inhibition) at 200 ppm [5] | mortality at 200 ppm [6]

Cc1cc(C2=NO[C@@](c3cc(Cl)c(F)c(Cl)c3)(C(F)(F)F)C2)ccc1C(=O)NC1CC(C2CC2)=NO1 (stereo partly drawn) [Compound A032, N-(3-cyclopropyl-4,5-dihydroisoxazol-5-yl)-4-[(5S)-5-(3,5-dichloro-4-fluoro-phenyl)-5-(trifluoromethyl)-4H-isoxazol-3-yl]-2-methyl-benzamide]
≥ 80%: mortality at 200 ppm [1] | mortality at 200 ppm [2] | percent control (mortality, anti-feedant effect or growth inhibition) at 200 ppm [3] | percent effect (mortality or growth inhibition) at 200 ppm [4] | percent effect (mortality or growth inhibition) at 200 ppm [5] | mortality at 200 ppm [6]

CC1=NOC(N(C=O)C(=O)c2ccc(C3=NO[C@@](c4cc(Cl)c(F)c(Cl)c4)(C(F)(F)F)C3)cc2Cl)C1 (stereo partly drawn) [Compound A033, 2-chloro-4-[(5S)-5-(3,5-dichloro-4-fluoro-phenyl)-5-(trifluoromethyl)-4H-isoxazol-3-yl]-N-formyl-N-(3-methyl-4,5-dihydroisoxazol-5-yl)benzamide]
≥ 80%: mortality at 200 ppm [1] | mortality at 200 ppm [2] | percent control (mortality, anti-feedant effect or growth inhibition) at 200 ppm [3] | percent effect (mortality or growth inhibition) at 200 ppm [4] | percent effect (mortality or growth inhibition) at 200 ppm [5] | mortality at 200 ppm [6]

CC1=NOC(N(C=O)C(=O)c2ccc(C3=NO[C@@](c4cc(Cl)c(F)c(Cl)c4)(C(F)(F)F)C3)cc2Br)C1 (stereo partly drawn) [Compound A034, 2-bromo-4-[(5S)-5-(3,5-dichloro-4-fluoro-phenyl)-5-(trifluoromethyl)-4H-isoxazol-3-yl]-N-formyl-N-(3-methyl-4,5-dihydroisoxazol-5-yl)benzamide]
≥ 80%: mortality at 200 ppm [1] | mortality at 200 ppm [2] | percent control (mortality, anti-feedant effect or growth inhibition) at 200 ppm [3] | percent effect (mortality or growth inhibition) at 200 ppm [4] | percent effect (mortality or growth inhibition) at 200 ppm [5] | mortality at 200 ppm [6]

CC1=NOC(N(C=O)C(=O)c2ccc(C3=NO[C@@](c4cc(Cl)c(Cl)c(Cl)c4)(C(F)(F)F)C3)cc2Br)C1 (stereo partly drawn) [Compound A035, 2-bromo-N-formyl-N-(3-methyl-4,5-dihydroisoxazol-5-yl)-4-[(5S)-5-(3,4,5-trichlorophenyl)-5-(trifluoromethyl)-4H-isoxazol-3-yl]benzamide]
≥ 80%: mortality at 200 ppm [1] | mortality at 200 ppm [2] | percent control (mortality, anti-feedant effect or growth inhibition) at 200 ppm [3] | percent effect (mortality or growth inhibition) at 200 ppm [4] | percent effect (mortality or growth inhibition) at 200 ppm [5] | mortality at 200 ppm [6]
